Data set [1] concerns the target T1, GSK3β-HiBiT (GSK3β-HiBiT KI HEK293 cells) (Homo sapiens, UniProt P49841).
T1 construct: we generated endogenously tagged GSK3β-HiBiT knock-in (KI) HEK293 cells; endogenous in cells; host or cells: GSK3β-HiBiT knock-in HEK293 cells (CRISPR/Cas9, single-cell clone)
As to the kind of experiment: Serum shift assay (10% FBS or 10% mouse serum). Type of data set: cell-based. The procedure:
Test compounds were serially diluted into white bottom opaque tissue culture grade 384-well assay plates (Perkin Elmer) using Echo500 (Labcyte) and GSK3β-HiBiT KI HEK293 cells were seeded at a density of 5 × 10^3 cells per well either in 50 µL of DMEM supplemented with regular 10% FBS (Gibco) or instead 10% mouse serum (Balb/C) and plates were incubated for compound treatment in incubators at 37 °C. After 24 h of compound treatment, HiBiT lytic reagents (Promega) prepared according to manufacturers’ instructions were added into plates and luminescence signal was measured on a PheraStar plate reader (BMG) and data analysed using GraphPad Prism (v10.1.2) as previously described above.

A short description of data set [2]: KH1 (24) intravenous PK/PD study: blood and brain levels, observation. Type of data set: in vivo, female Balb/c mice. On the procedure: The intravenous formulation for KH1 (24) was prepared by dissolving the compound in DMSO. This was then diluted with PEG400, followed by dropwise addition of sterile water to form a complete solution. The resulting formulation consisted of 5% DMSO, 40% PEG400, and 55% water, and contained KH1 (24) at a concentration of 1.0 mg/mL.
For the PK/PD study for KH1 (24), three female Balb/c mice were given a bolus intravenous injection at a dose level of 5 mg/kg (5 mL/kg). Animals were observed regularly after dose administration. At 4 h after the administration of KH1 (24), all animals were placed under terminal anaesthesia with isoflurane. Blood was collected via cardiac puncture and the brain and liver were removed. Two aliquots of 10 µL blood were each diluted into 90 µL of Milli-Q ultrapure water. All diluted blood samples were stored at −20 °C prior to bioanalysis. A portion of the brain was stored at −20 °C awaiting bioanalysis, while the remaining brain and liver tissues were snap-frozen in liquid nitrogen and stored at −80 °C awaiting biological investigation. The concentration of KH1 (24) in whole blood and brain tissue was determined via UPLC-MS/MS.
(§1) Blood samples (10 µL) from study mice were diluted 1× with 90 µL of water immediately when the sample was taken. All calibration, quality control, blanks and double blank samples (all 100 µL volume) were mixed (vortexed) with 300 µL of LCMS grade acetonitrile to precipitate proteins.
(§2) For study samples, a volume (30 µL) was mixed (vortexed) with a volume (90 µL) of acetonitrile to precipitate proteins. After protein precipitation, all samples were centrifuged to pellet the proteins. Study samples in Micronics tubes were centrifuged using a Beckman Coutler Allegra C-12R Centrifuge for 10 min at 3750 rpm. All other samples in Eppendorf tubes were centrifuged using a Sigma SciQuip 1–14 centrifuge for 10 min (14,800 rpm/16,163 × g). Supernatant from study samples (80 µL) and calibration samples, QCs, blanks, and double blanks (200 µL) were then transferred to HPLC glass vials containing Milli-Q water (40 µL or 100 µL, respectively), ready for LCMS analysis.

A short description of data set [3]: Discrete i.v./p.o. KH1 (24) PK study and brain penetration. Type of data set: in vivo, female Balb/c mice.
Text: Fifteen female mice of the Balb/c strain were obtained from Charles River Laboratories, UK. Animals were maintained under a 12-h light/12-h dark cycle, in Thoren mouse caging containing EC0 aspen bedding (DBM, UK), with 'Sizzlenest' and 'Rodent Rolls' nesting material (DBM). Enrichment materials included aspen chew sticks, cardboard houses, tunnels, swings, and sunflower seeds. All animals had ad libitum access to food (5LF2 Extruded Diet, IPS Ltd, UK) and tap water throughout. Temperature and relative humidity were maintained between 19 °C–24 °C and 45%–65%, respectively. All animals received a minimum of 10 days of acclimatisation prior to the start of the study.
The intravenous formulations for KH1 (24) were prepared by dissolving the compound in DMSO. This was then diluted with PEG400, followed by dropwise addition of sterile water to form a complete solution. The resulting formulations consisted of 5% DMSO, 40% PEG400, and 55% water, and contained KH1 (24) at a concentration of 0.1 mg/mL (for the PK study), or 1.0 mg/mL (for the PK/PD study), respectively.
The oral formulation for KH1 (24) was produced by vigorously mixing the compound with a sterile solution containing 0.5% hydroxypropylmethylcellulose in water, until a fine homogenous suspension was formed. The resulting formulation contained KH1 (24) at a concentration of 0.6 mg/mL. Dose formulations were prepared on the day of dosing, and animals were observed regularly after dose administration.
[…] Serial blood samples (10 µL per sample) were collected from the lateral tail vein of three intravenously-dosed mice and three orally-dosed mice at 5, 15 and 30 min, 1, 2, 4, 6, 8, and 24 h after dose administration. Blood samples were diluted into 90 µL of Milli‑Q ultrapure water. The remaining three intravenously-dosed animals were placed under terminal anaesthesia with isoflurane, 2 h after bolus administration. Blood was collected via cardiac puncture and the brains were removed. Two aliquots of 10 µL blood were each diluted into 90 µL of Milli-Q ultrapure water. All blood samples were stored at −20 °C prior to bioanalysis. The concentration of KH1 (24) in blood and brain was determined by UPLC-MS/MS.
as §1, §2

Setting [4] is: female, Balb/c, mouse, whole blood, Oral, 3 mg/kg.

For orientation: AUC(0-t) means exposure summed from dosing to a finite time, without extrapolation to infinity. The low end stands for less exposure, the high end for more exposure. One may read the Cmax as the maximum level reached in the sampled fluid or tissue. Usually Tmax stands for the time at which the peak concentration occurs. One may read the bioavailability as dose-corrected exposure relative to a reference, in per cent.

Read-outs that look alike come from different tables or passages of the source.

T1 sequence (P49841 whole entry): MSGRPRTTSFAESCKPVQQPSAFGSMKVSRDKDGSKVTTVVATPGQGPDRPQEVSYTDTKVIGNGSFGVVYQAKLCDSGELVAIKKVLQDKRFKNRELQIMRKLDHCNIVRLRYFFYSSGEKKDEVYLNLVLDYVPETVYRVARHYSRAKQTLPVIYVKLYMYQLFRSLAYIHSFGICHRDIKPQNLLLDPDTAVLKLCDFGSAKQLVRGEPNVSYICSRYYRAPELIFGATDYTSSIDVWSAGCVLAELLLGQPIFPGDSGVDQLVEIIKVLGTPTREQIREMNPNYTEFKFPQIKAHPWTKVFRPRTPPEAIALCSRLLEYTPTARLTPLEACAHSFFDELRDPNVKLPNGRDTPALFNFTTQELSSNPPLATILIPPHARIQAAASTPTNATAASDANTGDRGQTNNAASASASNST

With `Cn1nc(N2CCC(=O)NC2=O)c2ccc(CN3CCN(Cc4ccc(-c5cn(-c6ccc(-c7cn8nccc(C(=O)Nc9cnccc9N9CCOCC9)c8n7)cc6)nn5)nc4)CC3)cc21` [compound 24], the DC50 in data set [1] (10% foetal bovine serum (FBS), 24 h) came to 1.3 nM; in data set [1] (10% mouse serum (MS), 24 h), 10.4 nM. Also, the Dmax in data set [1] (HEK293, 10% foetal bovine serum (FBS), 24 h) was 89%. For the same compound, the “predicted shift in whole blood” value in data set [1] (extrapolated from 10% mouse serum shift) is listed as ~ 80 ×. Further, the “free fraction in mouse plasma from serum shift” value in data set [1] (extrapolated from serum shift assay) is ~ 1.2%. Further, the “adverse signs in vivo” value in data set [2] (5 mg/kg IV study and the lower IV/PO study) is listed as “no adverse signs”. Also, the Kp at 4 h in data set [2] (female, Balb/c, mouse, brain / whole blood, intravenous, 5 mg/kg i.v., 4 hours, read-out: Brain:Blood Ratio) was found to be 0.1. Further, the concentration at 4 h was 68 nM in data set [2] (female, Balb/c, mouse, brain, intravenous, 5 mg/kg i.v., 4 hours, read-out: Mean Brain Concentration) and 696 nM in data set [2] (female, Balb/c, mouse, whole blood, intravenous, 5 mg/kg i.v., 4 hours, read-out: Mean Blood Concentration). In data set [3] (IV, 0.37 mg/kg), this compound had a Half_Life of 2.3 h. This compound showed a Vss_obs in data set [3] (IV, 0.37 mg/kg) of 2.0 L/kg. The concentration at 2 h was 0.02 nM in data set [3] (female, Balb/c, mouse, brain (unbound), intravenous, 0.37 mg/kg, predicted from brain concentration and measured free fraction, read-out: free concentration in brain); 16 nM in data set [3] (female, Balb/c, mouse, brain, intravenous, 0.37 mg/kg i.v., 2 hours, read-out: Mean Brain Concentration); 0.4 to 0.9 nM in data set [3] (female, Balb/c, mouse, plasma (unbound), intravenous, 2 h, 0.37 mg/kg, using predicted free fractions, read-out: unbound total plasma concentration); 88 nM in data set [3] (female, Balb/c, mouse, whole blood, intravenous, 0.37 mg/kg i.v., 2 hours, read-out: Mean Blood Concentration). In addition, in data set [3] (female, Balb/c, mouse, brain / plasma (unbound), iv, 0.37 mg/kg i.v., 2 h, read-out: estimated Kp,uu), the Kp uu at 2 h is 0.05. The Kp at 2 h in data set [3] (female, Balb/c, mouse, brain / whole blood, intravenous, 0.37 mg/kg i.v., 2 hours, read-out: Brain:Blood Ratio) was determined as 0.18. Moreover, the AUC(0-t) is 572 ng·h/mL in data set [3] (female, Balb/c, mouse, whole blood, iv, 0.37 mg/kg) and 82.2 ng·h/mL in data set [3] (setting [4]). Besides, in data set [3] (female, Balb/c, mouse, whole blood, iv, 0.37 mg/kg, read-out: Cl_obs), the clearance came out at 10 mL/min/kg. In addition, the highest concentration (Cmax) in data set [3] (setting [4]) came to 19 ng/mL. Besides, the Tmax in data set [3] (setting [4]) was 2 h. In addition, the bioavailability in data set [3] (female, Balb/c, mouse, whole blood, Oral, 3 mg/kg, read-out: F (oral bioavailability)) came to 1.6%. Further, the “total mean plasma concentration” value in data set [3] (for up to 4 h following i.v. dosing at 0.37 mg/kg) was “above 65 nM”.

Values taken from article PMC12501029, “Discovery of a CNS active GSK3 degrader using orthogonally reactive linker screening” (Nature Communications, 2025).
